The text below walks through data of patent publication US20260224583A1, “COMPOSITIONS USEFUL FOR MODULATING SPLICING” (Skyhawk Therapeutics, Inc., priority 2023, published 2026).

This assay concerns ATXN3 transcripts containing exon 4 (E4E5). The experiment in a line: ATXN3 Quantitative Splicing Assay (qPCR, E4E5 primers/probe). It is filed as cell-based. To be noted: Homo sapiens; SK-N-MC cells, 24 h treatment, 30 μM to 0.6 nM; read-out: ATXN3 Potency - Splicing E4E5 IC50. The procedure:
Human neuroblastoma SK-N-MC cells were plated in 384-well plates at 20,000 cells/well. Twenty-four hours after plating, cells were treated with compounds for 24 h at appropriate concentrations ranging from 30 μM to 0.6 nM (0.3% DMSO). Treated cells were lysed in 15 μL of lysis buffer, and cDNA was synthesized using the Fast Advanced Cells-to-Ct kit. Two μL of each cDNA was used in qPCR reactions to confirm the exon 4 skipped transcripts of ATXN3. A second set of primers/probe E4E5 was used to detect the transcripts containing exon 4. The third set of primers/probe E8E9 was used to detect total gene level of ATXN3. The qPCR reactions were prepared in 384-well plates in 10 μL volume, using TaqMan™ Fast Advanced Master Mix with primers and probes shown in the table below. Reactions were run in a Quant Studio 6 qPCR instrument with default settings.
The primers and probes are listed below in Table 3.
(Real-time PCR tracks product formation cycle by cycle.)
In the case of `COC[C@H](N)Cc1cc2c(NCc3ccco3)nc(Cl)nn2c1Br` [Compound 8], the half-maximal inhibitory concentration (IC50) lay within 101 to 500 nM.

For the compound `N[C@@H](CF)Cc1cc2c(NCc3ccco3)nc(Cl)nn2c1Br` [Compound 4, (R)-6-(2-amino-3-fluoropropyl)-7-bromo-2-chloro-N-(furan-2-ylmethyl)pyrrolo[2,1-f][1,2,4]triazin-4-amine], the IC50 was in the range of 0.01 to 100 nM.

On to `C[C@H](N)Cc1cc2c(NCc3ccco3)nc(Cl)nn2c1Br` [Compound 10], for which the concentration for half-maximal inhibition (IC50) was in the range of 101 to 500 nM.

Regarding `[2H]C([2H])([2H])OCC(N)Cc1cc2c(NCc3ccco3)nc(Cl)nn2c1Br` (centres unmarked) [Compound 11], the IC50 is 101 to 500 nM.

As for `N[C@H](Cc1cc2c(NCc3ccco3)nc(Cl)nn2c1Br)CC(F)(F)F` [Compound 14], the IC50 was 101 to 500 nM.

As for `N[C@@H](CF)Cc1cc2c(NCc3ccco3)nc(Cl)nn2c1Cl` [Compound 3, (R)-6-(2-amino-3-fluoropropyl)-2,7-dichloro-N-(furan-2-ylmethyl)pyrrolo[2,1-f][1,2,4]triazin-4-amine], the IC50 was 0.01 to 100 nM.

Regarding `C[C@H](N)Cc1cc2c(NCc3ccco3)nc(Cl)nn2c1Cl` [Compound 9], the IC50 lay within 0.01 to 100 nM.

Regarding `C[C@H](F)[C@H](N)Cc1cc2c(NCc3ccco3)nc(Cl)nn2c1Br` [Compound 1, 6-((2R,3S)-2-amino-3-fluorobutyl)-7-bromo-2-chloro-N-(furan-2-ylmethyl)pyrrolo[2,1-f][1,2,4]triazin-4-amine], the IC50 lay in the range of 0.01 to 100 nM.

As for `COC[C@H](N)Cc1cc2c(NCc3ccco3)nc(Cl)nn2c1Cl` [Compound 7, (R)-6-(2-amino-3-methoxypropyl)-2,7-dichloro-N-(furan-2-ylmethyl)pyrrolo[2,1-f][1,2,4]triazin-4-amine], the IC50 lay in the range of 101 to 500 nM.

Turning to `N[C@@H](COC(F)F)Cc1cc2c(NCc3ccco3)nc(Cl)nn2c1Br` [Compound 6, (R)-6-(2-amino-3-(difluoromethoxy)propyl)-7-bromo-2-chloro-N-(furan-2-ylmethyl)pyrrolo[2,1-f][1,2,4]triazin-4-amine], the IC50 lay within 101 to 500 nM.

For the compound `N[C@H](Cc1cc2c(NCc3ccco3)nc(Cl)nn2c1Cl)CC1CC1` [Compound 17], the IC50 was in the range of 101 to 500 nM.

For the compound `[2H]C([2H])([2H])OC[C@H](N)Cc1cc2c(NCc3ccco3)nc(Cl)nn2c1Cl` [Compound 12], the IC50 lay in the range of 101 to 500 nM.

On to `N[C@@H](CCOC(F)F)Cc1cc2c(NCc3ccco3)nc(Cl)nn2c1Br` [Compound 16], for which the IC50 is 0.01 to 100 nM.

For `C[C@H](F)[C@H](N)Cc1cc2c(NCc3ccco3)nc(Cl)nn2c1Cl` [Compound 2, 6-((2R,3S)-2-amino-3-fluorobutyl)-2,7-dichloro-N-(furan-2-ylmethyl)pyrrolo[2,1-f][1,2,4]triazin-4-amine], the IC50 fell in the range of 101 to 500 nM.

Consider `N[C@@H](CCOC(F)(F)F)Cc1cc2c(NCc3ccco3)nc(Cl)nn2c1Br` [Compound 15], for which the IC50 was 101 to 500 nM.

For the compound `N[C@H](Cc1cc2c(NCc3ccco3)nc(Cl)nn2c1Br)CC1CC1` [Compound 13], the IC50 was 101 to 500 nM.

`N[C@@H](COC(F)F)Cc1cc2c(NCc3ccco3)nc(Cl)nn2c1Cl` [Compound 5, (R)-6-(2-amino-3-(difluoromethoxy)propyl)-2,7-dichloro-N-(furan-2-ylmethyl)pyrrolo[2,1-f][1,2,4]triazin-4-amine]: the IC50 was in the range of 101 to 500 nM.

The IC50 is the point on the concentration scale where inhibition reaches its midpoint.
